Measurements from US11236083B2, “Compounds and pharmaceutical compositions for modulating SGK activity, and methods thereof” (NEW ERA PHARMA, INC., priority 2016, dated 2022).
Like-named read-outs stand apart in the source and are kept apart here.

Columns and labels:
[1] = target: T1, Sgk1 (Homo sapiens, UniProt O00141); assay: Enzyme based assay for SGK1 (biotinylated Akt Substrates-2 peptide, Eu3+ Cryptate/XL665 detection); type: biochemical
T1 sequence (O00141 1-431): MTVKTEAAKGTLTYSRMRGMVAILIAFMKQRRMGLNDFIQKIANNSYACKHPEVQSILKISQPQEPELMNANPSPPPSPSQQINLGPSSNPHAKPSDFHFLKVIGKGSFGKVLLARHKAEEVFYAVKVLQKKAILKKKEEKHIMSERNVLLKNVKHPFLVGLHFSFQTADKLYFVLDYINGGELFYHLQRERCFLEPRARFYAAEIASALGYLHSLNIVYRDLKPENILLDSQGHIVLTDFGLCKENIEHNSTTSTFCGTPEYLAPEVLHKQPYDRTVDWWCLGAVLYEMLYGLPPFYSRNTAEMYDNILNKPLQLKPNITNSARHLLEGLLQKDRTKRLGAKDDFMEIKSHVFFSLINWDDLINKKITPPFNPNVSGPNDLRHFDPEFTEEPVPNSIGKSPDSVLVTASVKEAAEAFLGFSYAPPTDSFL
Description: (§1) 1. Enzyme Based Assays for SGK1, SGK2, SGK3, and Akt1
(§2) The kinase enzymatic reaction is carried out with a biotinylated Akt Substrates-2 peptide substrate. The phosphorylated substrate is then detected using a specific anti-phospho peptide antibody which is coupled with Eu^3+ Cryptate and XL665 conjugated with streptavidin.
(§3) Exemplary Assay Conditions
(§4) • Enzyme: ˜0.1 nM • Substrate: 0.2 μM • ATP: 50 μM and 1 mM • Mg^2+: 10 mM • Reaction time: 60 min with 50 μM ATP and 30 min with 1 mM ATP • SA-XL to Biotin: 1:10
(§5) Detailed Steps • 1. prepare the enzyme and substrate solution with the buffer from Cisbio • 2. add the enzyme and substrate solution to the diluted compound plate • 3. transfer 5 μL of compound, enzyme, and substrate mixture to an 384-well assay plate • 4. add 5 μL ATP (with Mg^2+) solution to initiate the reaction • 5. after certain time, add 10 μL of stop solution containing SA-XL and specific antibody • 6. read the plate after 2 h incubation at rt • 7. process the data using prizm software (Exemplary results are shown in FIG. 1.) 2. PK Studies Protocol

[2] = target: T2, Sgk2 (Homo sapiens, UniProt Q9HBY8); assay: Enzyme based assay for SGK2 (biotinylated Akt Substrates-2 peptide, Eu3+ Cryptate/XL665 detection); type: biochemical
T2 sequence (Q9HBY8 1-367): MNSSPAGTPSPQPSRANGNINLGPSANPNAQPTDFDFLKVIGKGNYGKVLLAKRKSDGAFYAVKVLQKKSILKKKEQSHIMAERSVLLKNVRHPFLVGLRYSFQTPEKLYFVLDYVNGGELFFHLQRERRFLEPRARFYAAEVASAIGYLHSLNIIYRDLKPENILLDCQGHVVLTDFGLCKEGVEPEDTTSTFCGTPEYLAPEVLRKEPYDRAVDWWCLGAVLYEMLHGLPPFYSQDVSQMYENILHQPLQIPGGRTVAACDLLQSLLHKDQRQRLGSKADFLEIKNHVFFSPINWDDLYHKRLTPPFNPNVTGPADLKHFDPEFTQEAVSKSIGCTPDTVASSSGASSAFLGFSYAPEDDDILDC
Description: as §1, §2, §3, §4, §5

[3] = target: T3, Sgk3 (Homo sapiens, UniProt Q96BR1); assay: Enzyme based assay for SGK3; type: biochemical
T3 sequence (Q96BR1 1-496): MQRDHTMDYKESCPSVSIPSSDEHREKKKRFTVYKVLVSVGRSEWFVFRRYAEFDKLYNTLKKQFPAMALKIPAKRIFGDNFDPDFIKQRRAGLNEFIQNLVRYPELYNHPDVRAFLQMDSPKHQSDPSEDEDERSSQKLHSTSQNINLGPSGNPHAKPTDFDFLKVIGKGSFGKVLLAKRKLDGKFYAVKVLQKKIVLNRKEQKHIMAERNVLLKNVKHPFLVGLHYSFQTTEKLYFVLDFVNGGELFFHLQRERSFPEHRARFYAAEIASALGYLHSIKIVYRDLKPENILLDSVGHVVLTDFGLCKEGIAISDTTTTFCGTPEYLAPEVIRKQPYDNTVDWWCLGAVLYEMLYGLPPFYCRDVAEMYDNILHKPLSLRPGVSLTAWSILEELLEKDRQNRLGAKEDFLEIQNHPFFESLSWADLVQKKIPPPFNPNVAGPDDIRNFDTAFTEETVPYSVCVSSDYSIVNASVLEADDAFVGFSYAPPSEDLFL
Description: as §1, §2, §3, §4, §5

[4] = tested on: HeLa; assay: HeLa cell testing (Table 2); type: cell-based; settings: Homo sapiens; HeLa cells
[5] = PK study in male ICR mice, intravenous and oral administration, plasma concentration; type: in vivo; settings: for MRT inf: read-out: MRT(0-∞)
From the text: 3 Male mice/group, 8 groups total with Intravenous and Oral Administration, then measure the compound concentration in plasma.
Selected Pharmacokinetics Parameters of Compound N in Male ICR Mice Following Intravenous and Oral Administration

[6] = 50 μM ATP, read-out: Sgk1 (50 μM ATP)
[7] = 1 mM ATP, read-out: Sgk1 (1 mM ATP)
[8] = 50 μM ATP, read-out: Sgk2 (50 μM ATP)
[9] = 1 mM ATP, read-out: Sgk2 (1 mM ATP)

SMILES | IC50 [1, 6] [nM] | IC50 [1, 7] [nM] | IC50 [2, 8] [nM] | IC50 [2, 9] [nM] | IC50 [3] [nM] | other results
CCOc1cc(-c2ccc(NS(=O)(=O)c3cc(OC)ccc3F)cc2)cc2[nH]nc(N)c12 | 11.8 | 2 | 12.3 | 29.9 | 130 | –
COCCOc1cc(-c2ccc(NS(=O)(=O)c3cc(OC)ccc3F)cc2)cc2[nH]nc(N)c12 | 27.7 | 92.8 | 8 | 21.3 | 100 | –
COc1ccc(F)c(S(=O)(=O)Nc2ccc(-c3cc(OC)c4c(N)n[nH]c4c3)nc2)c1 | 13 | 11.1 | 5 | 6.5 | – | –
COc1ccc(F)c(S(=O)(=O)Nc2ccc(-c3cc(OC)c4c(N)n[nH]c4c3)cn2)c1 | 29.7 | 133 | 7.2 | 29.7 | – | –
COc1ccc(F)c(S(=O)(=O)Nc2ccc(-c3cc4c5c(n[nH]c5c3)NC(=O)C(C)(C)O4)cc2)c1 | 77.6 | 344 | 35 | 323 | – | –
CCOc1cc(-c2ccc(NS(=O)(=O)c3cc(OC)ccc3F)cc2)nc2[nH]nc(N)c12 | 16.2 | 8.2 | 7.8 | 10.1 | – | –
COc1ccc(F)c(S(=O)(=O)Nc2ccc(-c3cc(OCCN(C)C)c4c(N)n[nH]c4n3)cc2)c1 | 45 | 187 | 4.2 | 40 | – | –
COc1ccc(F)c(S(=O)(=O)Nc2ccc(-c3cc(OC4CCOC4)c4c(N)n[nH]c4n3)cc2)c1 (centres unmarked) | 24.7 | 8.9 | 7.6 | 7.6 | – | –
CCOc1cc(-c2ccc(NS(=O)(=O)c3cc(OC)ccc3F)cn2)cc2[nH]nc(N)c12 | 14.1 | 110 | 75 | 19.8 | – | –
COCCOc1cc(-c2ccc(NS(=O)(=O)c3cc(OC)ccc3F)cn2)cc2[nH]nc(N)c12 | 40 | 15.3 | 4.5 | 33.2 | – | –
COc1ccc(F)c(S(=O)(=O)Nc2ccc(-c3cc(O[C@H]4CCOC4)c4c(N)n[nH]c4c3)nc2)c1 | 109 | 181 | 14.6 | 17.8 | – | –
O=S(=O)(Nc1ccc(-c2ccc3cn[nH]c3n2)cc1)c1cc(Cl)ccc1F | 97.9 | 77 | 5.9 | 169 | – | IC50 [4]: 2170 nM
Nc1n[nH]c2nc(-c3ccc(NS(=O)(=O)c4cc(Cl)ccc4F)cc3)ccc12 | 238 | > 2000 | 21.8 | 569 | – | IC50 [4]: 20100 nM
O=S(=O)(Nc1ccc(-c2ccc3cn[nH]c3c2)cc1)c1cc(Cl)ccc1F | 124 | 352 | 32.1 | 664 | – | IC50 [4]: 2470 nM
COc1ccc(F)c(S(=O)(=O)Nc2ccc(-c3cc4[nH]ncc4cn3)cc2)c1 | 160 | > 200 | 9.7 | > 200 | – | –
COc1ccc(F)c(S(=O)(=O)Nc2ccc(-c3ccc4c(N)n[nH]c4c3)nc2)c1 [Compound N, N-(6-(3-amino-1H-indazol-6-yl)pyridin-3-yl)-2-fluoro-5-methoxybenzenesulfonamide] | – | – | – | – | – | CLz ([5]; IV (2 mg/kg)): 0.17 mL/min/kg; t1/2z ([5]; IV (2 mg/kg)): 6.99 h; t1/2z ([5]; PO (20 mg/kg)): 17.27 h; F ([5]; PO (20 mg/kg), F is calculated from AUC(0-t)): 63.37%; AUC(0-inf) ([5]; mouse, plasma, IV (2 mg/kg)): 165 µg·h/mL; AUC(0-t) ([5]; mouse, plasma, IV (2 mg/kg)): 151 µg·h/mL; Cmax ([5]; mouse, plasma, IV (2 mg/kg)): 29.1 µg/mL; Tmax ([5]; mouse, plasma, IV (2 mg/kg)): 0.08 h; MRT inf ([5]; mouse, plasma, IV (2 mg/kg)): 8.84 h; Vd ([5]; mouse, plasma, IV (2 mg/kg), read-out: Vz): 0.12 L/kg; AUC(0-inf) ([5]; mouse, plasma, PO (20 mg/kg)): 1530 µg·h/mL; AUC(0-t) ([5]; mouse, plasma, PO (20 mg/kg)): 957 µg·h/mL; Cmax ([5]; mouse, plasma, PO (20 mg/kg)): 71.9 µg/mL; Tmax ([5]; mouse, plasma, PO (20 mg/kg)): 0.25 h; MRT inf ([5]; mouse, plasma, PO (20 mg/kg)): 24.1 h
COc1ccc(F)c(S(=O)(=O)Nc2ccc(-c3cc4[nH]nc(N)c4c(C)n3)cc2)c1 [drawing 110] | 10.6 | 8.5 | 3.1 | 5.3 | 50 | –
COc1ccc(F)c(S(=O)(=O)Nc2ccc(-c3ccc4c(N)n[nH]c4c3)nc2)c1 [drawing 151] | 25 | 158 | 4.6 | 20.8 | – | –

Now from value to compound, other results behind:

IC50 [1, 6] [nM] | IC50 [1, 7] [nM] | IC50 [2, 8] [nM] | IC50 [2, 9] [nM] | IC50 [3] [nM] | SMILES | other results
3.4 | 10.7 | 3.5 | 9.8 | – | COc1ccc(F)c(S(=O)(=O)Nc2ccc(-c3cc(OCC4CNCCO4)c4cn[nH]c4n3)cc2)c1 (centres unmarked) | –
3.2 | 11.6 | 4.1 | 8.2 | 150 | COc1ccc(F)c(S(=O)(=O)Nc2ccc(-c3cc(CCC4CNCCO4)c4cn[nH]c4c3)cc2)c1 (centres unmarked) | –
1.9 | 12.4 | 1.7 | 6.6 | 150 | COc1ccc(F)c(S(=O)(=O)Nc2ccc(-c3cc(NCC4CNCCO4)c4cn[nH]c4c3)cc2)c1 (centres unmarked) | –
5.1 | 7.7 | 7.9 | 6.2 | 90 | COc1ccc(F)c(S(=O)(=O)Nc2ccc(-c3cc(OCCO)c4c(N)n[nH]c4c3)cc2)c1 | –
4.8 | 12.6 | 3.4 | 18.6 | – | COc1ccc(F)c(S(=O)(=O)Nc2ccc(-c3cc4c5c(n[nH]c5c3)NC(=O)CN4)cc2)c1 | –
10.1 | 9.2 | 5 | 7.9 | – | COc1ccc(F)c(S(=O)(=O)Nc2ccc(-c3cc(C)c4c(N)n[nH]c4c3)nc2)c1 | –
8.5 | 10.3 | 4 | 36 | – | COc1ccc(F)c(S(=O)(=O)Nc2ccc(-c3cc(O[C@@H]4CCOC4)c4c(N)n[nH]c4c3)nc2)c1 | –
5.2 | 150 | 1.8 | 66 | – | COc1ccc(F)c(S(=O)(=O)Nc2ccc(-c3ccc4cn[nH]c4n3)cc2)c1 | IC50 [4]: > 50000 nM
1.3 | 13.4 | 1.6 | 10 | 100 | COc1ccc(F)c(S(=O)(=O)Nc2ccc(-c3cc4[nH]ncc4c(OCC4CNCCO4)n3)cc2)c1 (centres unmarked) [drawing 105] | –
2.4 | 17.8 | 5.1 | 8.9 | 40 | COc1ccc(F)c(S(=O)(=O)Nc2ccc(-c3cc(OC)c4c(N)n[nH]c4c3)cc2)c1 [drawing 108] | –
2.8 | 5.5 | 4.1 | 3.7 | 30 | COc1ccc(F)c(S(=O)(=O)Nc2ccc(-c3cc(C)c4c(N)n[nH]c4n3)cc2)c1 [drawing 111] | –
2.9 | 6.5 | 2 | 6.5 | 70 | COc1ccc(F)c(S(=O)(=O)Nc2ccc(-c3ccc4c(N)n[nH]c4n3)cc2)c1 [drawing 140] | IC50 [4]: 21400 nM
